Reference: patent US8513245B2, “Pharmaceutical composition for reducing the area of myocardial infarction and its use” (Changzhou Hi-Tech District Multiple Dimension Industry …, priority 2007, dated 2013)
Where a name gives a salt, the structure may show the parent alone.

System: rat model of AMI
Experiment: Protective effect in rat model of AMI (coronary ligation, NBT staining, infarcted myocardium weight)
Type: in vivo
Conditions: for IMW / IMW/HW (%): SD male rats, 4 h after ligation

Row | SMILES | reduction of IMW/HW (%) in comparison with solvent control group (900 mg/kg levocarnitine) | IMW (LC 100 mg/kg i.p.) | IMW/HW (%) (LC 100 mg/kg i.p.) | IMW (LC 300 mg/kg i.p.) | IMW/HW (%) (LC 300 mg/kg i.p.) | IMW (LC 600 mg/kg i.p.) | IMW/HW (%) (LC 600 mg/kg i.p.) | IMW (LC 900 mg/kg i.p.) | IMW/HW (%) (LC 900 mg/kg i.p.) | reduction of IMW/HW (%) in comparison with solvent control group (9 mg/kg trimetazidine, control 24.5%) | IMW (TMZ 1 mg/kg i.p.) | IMW/HW (%) (TMZ 1 mg/kg i.p.) | IMW (TMZ 3 mg/kg i.p.) | IMW/HW (%) (TMZ 3 mg/kg i.p.) | IMW (TMZ 6 mg/kg i.p.) | IMW/HW (%) (TMZ 6 mg/kg i.p.) | IMW (TMZ 9 mg/kg i.p.) | IMW/HW (%) (TMZ 9 mg/kg i.p., hydrochloride) | IMW/HW (%) (TMZ 9 mg/kg i.p., listed as trimetazidine, hydrochloride)
1 | C[N+](C)(C)C[C@H](O)CC(=O)[O-] [LC, Levocarnitine] | 22.9% | 139 ± 25.9 mg | 16.8 ± 3.33% | 141 ± 23.0 mg | 17.2 ± 3.04% | 139 ± 24.0 mg | 16.8 ± 3.10 % | 129 ± 23.8 mg | 15.8 ± 3.10 % | – | – | – | – | – | – | – | – | – | –
2 | COc1ccc(CN2CCNCC2)c(OC)c1OC [TMZ, trimetazidine hydrochloride] | – | – | – | – | – | – | – | – | – | 34.7% | 177 ± 20.2 mg | 22.8 ± 3.40% | 163 ± 20.2 mg | 21.0 ± 2.60 % | 132 ± 19.1 mg | 17.0 ± 3.20 % | 125 ± 15.2 mg | 16.0 ± 2.50 % | 16.0%
